Experiments:
HTB-38 = experiment: Cell growth by Lowry protein determination after 80 hours in zinc-supplemented culture medium; assay type: cell-based, human; conditions: for decrease in protein yield: compared to Cell Culture Medium No. 1, 4800 min
Excerpt: (§1) In the example, malignant transformed human cell lines obtained from the American Type Culture Collection, i.e., a human epithelial cervix carcinoma cell line, HeLa (ATCC No. CCL-2), a human adenocarcinoma carcinoma cell line of the colon, HT-29 (ATCC No. HTB-38) and a human adenocarcinoma carcinoma cell line of the breast, SK-BR-3 (ATCC No. HTB-30) were used. Non-transformed dipolid human fibroblast cells (MRC-5, ATCC No. CCL-171) were employed as a control. The cell lines were obtained from the American Type Culture Collection in a frozen condition. In order to reactivate the cells, the cells were subcultured in McCoy 5A (mod.) medium (Serva Company) containing 15% (v/v) fetal calf serum.
(§2) The reactivated cells were allowed to reach the logarithmic growth phase and then detrypsinized and harvested. The harvested cells were washed twice with McCoy 5A (mod.) medium containing 15% (v/v) fetal calf serum and then resuspended in the same medium at a concentration of 10⁶ cells per ml. The correct cell concentration was determined using a Neubeuer-Turk count chamber in which the viability of the cells was also determined by means of Trypan blue coloring (see: Freshney, I.R., Culture of Animal Cells, Alan Riss Publ. Co., New York, N.Y. (1983)).
(§3) To tubes containing 200,000 HTB-30 cells or 200,000 HTB-38 cells or 200,000 CCL-2 cells was added Cell Culture Medium Nos. 1, 2, 3, 4, 5, 6, 7, 8 or 9 described below and the cells were incubated for 80 hours. In addition, to tubes containing 200,000 human fibroblast cells (MRC-5) were added Cell Culture Medium Nos. 1, 2, 3, 4, 5, 6, 7, 8 or 9 described below and the cells were incubated for 80 hours. All of the cells were incubated at 36.5°C (± 0.5°C), 5% CO₂ and 95% air. Five duplicate tubes were employed for each cell culture medium for each cell.
(§4) After the end of the incubation time, the culture medium was removed and the cells were washed three times with Dulbecco buffer solution (see: Dulbecco, R.U., Vogt, M., J. Exp. Med. 98:167-182 (1954)). Next, the cells were dried and octyl phenol polyethylene glycol ether was added at a concentration of 0.2% (v/v) to each tube to which 20 µl of 1.0 N NaOH had been additionally added per ml.
(§5) After thorough mixing and allowing the samples to stand for 30 minutes at 20-25°C, 200 µl each of the resulting cell extracts were used for protein determinations according to the Lowry method (see: Lowry, O.H. et al., J. Biol. Chem. 193:265 (1951)).
(§6) The Control in the Table below refers to Cell Culture Medium No. 1 at 4°C to which no cells had been added. […] All growth values are mean values from the five duplicate tubes ± the standard deviation.
(§7) The growth value as a percent of the Control was determined according to the following formula: [formula]
(§8) In addition, in the Table, the mean adsorption values are determinative of the concentration of protein in the cells and were evaluated at 660 nm.

HTB-30 = experiment: as above; assay type: cell-based, human; conditions: HTB-30, about 1.6 mg/l to about 4.0 mg/l of Zn⁺⁺
Excerpt: as §1, §2, §3, §4, §5, §6, §7, §8

CCL-2 = experiment: as above; assay type: cell-based, human; conditions: CCL-2, about 1.6 mg/l to about 4.0 mg/l of Zn⁺⁺
Excerpt: as §1, §2, §3, §4, §5, §6, §7, §8

Human Fibroblasts = experiment: Cell growth by Lowry protein determination after 80 hours in zinc-supplemented culture medium (non-transformed control cells); assay type: cell-based; conditions: about 1.6 mg/l to about 4.0 mg/l of Zn⁺⁺
Excerpt: as §1
The reactivated cells were allowed to reach the logarithmic growth phase and then detrypsinized and harvested. […] The correct cell concentration was determined using a Neubeuer-Turk count chamber in which the viability of the cells was also determined by means of Trypan blue coloring (see: Freshney, I.R., Culture of Animal Cells, Alan Riss Publ. Co., New York, N.Y. (1983)). […]
as §7, §8

## [Cl-].[Cl-].[Zn+2] [bivalent zinc, ZnCl₂]
HTB-38; HTB-38, 3.5 mg/l of Zn⁺⁺ (maximum growth suppression)
  decrease in protein yield: 41.8%
HTB-38; HTB-38, about 1.6 mg/l to about 4.0 mg/l of Zn⁺⁺
  growth rate, expressed as protein concentration: inhibited
HTB-38; HTB-38, about 2.1 mg/l of Zn⁺⁺
  decrease in protein yield: 24.8%
HTB-30
  growth rate, expressed as protein concentration: inhibited
CCL-2
  growth rate, expressed as protein concentration: inhibited
Human Fibroblasts
  growth rate, expressed as protein concentration: not inhibited
